Measurements taken from patent US12539284B2, “Aminoxy acid-based anti-cancer stem cell compounds and methods thereof” (Westlake University, priority 2019, dated 2026).
Read-outs that look alike come from different tables or passages of the source.

Columns and labels:
Format in all cases: cell-based, human
[1] = system: Adherent Hey A8 cells; experiment: Cell respiration, oxygen consumption rate (Seahorse XF24); settings: FIG. 10; for cell respiration response to subsequent addition of FCCP, antimycin A and rotenone: more obvious at higher doses
Method: Cell respiration was measured by using an XF24 Extracellular Flux Analyzer (Seahorse, Bioscience), which measures the oxygen consumption rate (OCR). Adherent Hey A8 cells were seeded at 50000 cells/well in […] of their culture medium and incubated for 24 h at 37° C. in humidified atmosphere with 5% CO2. The medium was then replaced with 670 μL/well of high-glucose DMEM without serum and supplemented with 1 mM sodium pyruvate and 2 mM L-glutamine. The oxygen consumption rate (OCR) was measured with an extracellular flux analyzer (Seahorse) at preset time intervals upon the preprogrammed additions of the following compounds: Oligomycin to 1 μM, FCCP to 500 nM, Antimycin A and Rotenone to 0.5 μM final concentrations.

[2] = system: HEY A8 CSCs; experiment: Immunoblotting of autophagy associated proteins P62 and LC3; settings: 24 h; CSCs at 10-fold lower concentration than cancer cells
Method: HEY A8 cancer cells and CSCs were treated with compound sff-2-112 (“Example 1”) or sff-2-132 (“Example 4”) for 24 h. Then cells were washed twice with PBS buffer and lysed for immuno-staining. The immunostaining methods were as same as it described in Example 10.

[3] = system: SKOV3 CSCs (SKOV3 SP); experiment: Cell viability (CellTiter-Glo) on SKOV3 spheres (CSCs); settings: read-out: IC50 Cancer Stem Cell SKOV3 SP
Method: (§1) Cell Cultures Human ovarian carcinoma cell lines HEY A8 and SKOV3 were gifts from Professor Alice Wong's group (The University of Hong Kong). Cells were grown in Dulbecco's Modified Eagle (DMEM) medium supplemented with 10% FBS and 1% penicillin/streptomycin at 37° C. in a humidified atmosphere containing […] CO2. Isolation and culture of spheres were performed in serum-free stem-cell-selective condition as described in literature Ip etl. Oncogene 2014, 5, 9133-9149. Briefly, 1-2 weeks after plating, non-adherent spherical clusters of cells could be observed and were separated from single cells by low speed centrifugation. After 8th to 10th passages, the non-adherent spherical clusters of cells appeared as distinct spheres. Using this selection condition, HEY A8 spheres (HEY A8 SP) or SKOV3 spheres (SKOV3 SP) could be enzymatically dissociated and reformed into spheres within 3 days under stem-cell-selective condition. To allow differentiation, dissociated sphere cells were plated on tissue culture plates in medium (MCDB 105:M199=1:1) supplemented with 10% FBS and 1% PS.
HEY A8 SP cells or SKOV3 SP cells (5×10^4) were plated in triplicate in 10 mL serum-free MCDB105 medium in 100-mm Petri dish for 7 days to form spheres. […] After that, the reagent was transferred into 96-well plates and cell viability was measured using a microplate reader (SpectraMax 340PC 384, Molecular Devices).

[4] = system: HEY A8 CSCs; experiment: Apoptosis, Annexin V / PI flow cytometry, CSCs; settings: 5 μM, 2 days; DMSO 4.92%
Method: A suspension of HEY A8 cells at the concentration of 5×10^4 cells/mL in DMEM medium were seeded into 60-mm cell culture dishes. Cells were incubated at 37° C. in a humidified atmosphere containing 5% CO2 for 24 h followed by the addition of 4 mL fresh medium or medium containing compound sff-2-112 (“Example 1”) or sff-2-132 (“Example 4”) at different concentration. Medium containing 0.1% DMSO was used as negative control. After 2 days, the medium was aspirated and cells were washed with cold PBS twice, and then stained with PI and Annexin V according to the manufacture's instruction (Dead Cell Apoptosis Kit with Annexin V Alexa Fluor™ 488 & Propidium Iodide, Thermo Fisher). Cells were analyzed by flow cytometry (BD FACS CantoII Analyzer).

[5] = system: SKOV3 cancer cells; experiment: Cell viability (CellTiter-Glo) on adherent SKOV3 cancer cells
Method: as §1
HEY A8 or SKOV3 cancer Cells were plated in triplicate in 0.1 mL full medium in 96-well plates for 24 h. After that, the medium was changed to the fresh prepared medium with various concentrations of compounds. Cells were incubated for another 48 h. Then the cell viability was measured by CellTiter-Glo® Luminescent Cell Viability reagent according to the manufacture's instruction. The luminescence at 550 nm was measured using a microplate reader (SpectraMax 340PC 384, Molecular Devices).

[6] = system: HEY A8 cells; experiment: Mitochondrial membrane potential (JC-1 red to green ratio); settings: for mitochondrial membrane potential, kinetic study: 10 μM added at 180 s, image interval 30 s; for mitochondrial membrane potential depolarization: treated 10 min, FIG. 8a
Method: A suspension of HEY A8 cells at the concentration of 5×10^4 cells/mL in DMEM medium were seeded into 30-mm cell culture dishes with glass bottom (MatTek). Cells were incubated at 37° C. in a humidified atmosphere containing 5% CO2 for 24 h. Medium was aspirated and cells was washed with PBS buffer twice. Then 1 mL HBSS buffer containing 2.5 μM JC-1 was added. Cells were incubated at 37° C. for 20 min before the buffer was aspirated. Cells were washed with PBS buffer twice and treated with cation transporters for 10 min. Fluorescence was monitored by confocal imaging with ZEISS LSM 780 (Red channel: λex=543 nm, Green channel: λex=488 nm). Quantitative data were obtained using the ZEN and Graph Pad Prism software packages.
The Kinetic study of this compound on the MMP in HEY A8 cells was also conducted. Compound sff-2-112 (“Example 1”) or sff-2-132 (“Example 4”) at the final concentration of 10 μM was added at 180 s. The interval for each image was 30 s. The decrease in red to green fluorescence ratio of JC-1 indicates MMP depolarization.

[7] = system: HEY A8 CSCs; experiment: Immunoblotting of apoptosis associated proteins PARP, Caspase 3, Caspase 9; settings: 48 h; CSCs at 10-fold lower concentration than cancer cells
Method: For immunostaining experiment, cells were treated with compound sff-2-112 (“Example 1”) or compound sff-2-132 (“Example 4”) at different concentration for 48 h, then washed twice with PBS buffer and lysed with 2×SDS buffer with 0.1% Benzonase. Protein extracts were quantified by Pierce BCA Protein Assay Kit with a Nanodrop 2000 (Thermo Fisher Scientific) according to the manufacture's instruction. Protein lysates (˜50 μg/lane) were resolved by SDS-PAGE and transferred onto PVDF membranes. Membranes were incubated with membrane blocking solution (Thermo Fisher Scientific) for 1 h. The blots were then probed with the relevant primary antibodies in blocking solution at 4° C. overnight with gentle agitation. Membranes were washed with 0.1% Tween 20/TBS for 5 min three times and were incubated with Horseradish Peroxidase (HRP) conjugated secondary antibodies for 1 h at room temperature. Antigens were detected by SuperSignal West Pico PLUS Chemiluminescent Substrate (Thermo Fisher Scientific). Imaging was performed using a ChemiDoc™ XRS+ System (Bio-Rad).

[8] = Homo sapiens, SK-OV-3, 48 h incubation

| IC50 [3, 8] | IC50 [5, 8] | Compound | OCR after addition of compound [1] | cell respiration response to subsequent addition of FCCP, antimycin A and rotenone [1] | LC3-II and p62 levels (autophagy suppression) [2] | IC50 ([3]; 48 h incubation) | Annexin V positive cells, CSCs [4] | IC50 ([5]; 48 h incubation) | mitochondrial membrane potential, kinetic study [6] | mitochondrial membrane potential depolarization [6] | activation of PARP1, Caspase 3 and Caspase 9 [7] |
| --- | --- | --- | --- | --- | --- | --- | --- | --- | --- | --- | --- |
| – | – | O=C(NO[C@H](COCc1ccccc1)C(=O)Nc1ccccc1)c1cc(C(F)(F)F)cc(C(F)(F)F)c1 [sff-2-112] | OCR immediately increased | significantly decreased | Increased levels of both LC3-II and p62 in CSCs | 0.9 ± 0.9 µM | 21.0% | 42.1 ± 5.2 µM | MMP depolarized immediately | effectively depolarize mitochondrial membrane potential (MMP) of HEY A8 cells in a dose dependent manner | activation of protein PARP1, Caspase 3 and Caspase 9 was also observed in CSCs |
| 1 ± 0.9 µM | 63.4 ± 8.9 µM | CC(C)(C)OC(=O)[C@@H](COCc1ccccc1)ONC(=O)c1cc(C(F)(F)F)cc(C(F)(F)F)c1 [sff-2-132] | OCR immediately increased | significantly decreased | Increased levels of both LC3-II and p62 in CSCs | – | 30.4% | – | MMP depolarized immediately | effectively depolarize mitochondrial membrane potential (MMP) of HEY A8 cells in a dose dependent manner | activation of protein PARP1, Caspase 3 and Caspase 9 was also observed in CSCs |
